Experimental data published in patent publication US20240140958A1, “FUSED QUADRACYCLIC COMPOUNDS, COMPOSITIONS AND USES THEREOF” (Tabomedex Biosciences, Inc., priority 2021, published 2024).

Key:
[1] = target: T1, MAPKAPK2 Recombinant Human Protein (Homo sapiens, UniProt P49137); test: MK2 kinase assay (Z'-LYTE kinase assay kit); conditions: inhibition of MK2 biochemical activity; 90 min incubation at room temperature
T1 construct: purchased ThermoFisher pv3317
Method: Materials and Reagents for Measuring Inhibition of MK2 Biochemical Activity: • 1) Assay plate: 384 Well Low Volume Black Round Bottom Polystyrene NBS Microplate (Corning, Cat.No. 4514) • 2) MK2 kinase assay kit: Z' LYTE KINASE ASSAY KIT (ThermoFisher, Cat.No. pv3177) • 3) MAPKAPK2 Recombinant Human Protein (ThermoFisher, Cat.No. pv3317) • 4) DMSO (Vetec, Cat.No. V900090) • 5) DTT (Sigma, Cat.No. D0632)
MK2 Kinase Assay Procedure: • 1) Dispense 5 μl Kinase/Peptide Mixture to each wells of 384-well plate • 2) Add 2.5 μl 4× Test Compound to each well • 3) Add 2.5 μl 4× ATP Solution to each well • 4) After 90 minutes incubation at room temperature, add 5 μl Development Solution to each well • 5) After 60 minutes incubation at room temperature, add 5 μl stop Solution to each well • 6) Measure the Coumarin (Ex. 400 nm, Em. 445 nm) and Fluorescein (Ex. 400 nm, Em. 520 nm) emission signals on an Envision plate reader (PerkinElmer)

THP-1 cells = test: THP-1 cell assay: LPS-stimulated pSer78-Hsp27 ELISA; format: cell-based; conditions: Homo sapiens, PMA-differentiated THP-1 cells, compound 60 min before 20 ng/mL LPS for 30 min
Excerpt: Materials and Reagents for Measuring Activity in THP-1 Cells: • 1) THP-1 cells (Cell bank of Shanghai) • 2) PMA (Sigma, Cat.No. P1585) • 3) LPS (Sigma, Cat.No. L4516) • 4) 96-well tissue-culture treated plate (Grenier, Cat.No. 655180) • 5) FBS (Thermofisher, Cat.No. 10100147) • 6) Complete EDTA-free protease inhibitor Cocktail (Roche, Cat.No. 4693132001) • 7) PhosSTOP (Roche, Cat.No. 4906845001) • 8) Phosphor-Hsp27 (Ser78) Sandwich Elisa kit (CST, Cat.No. 7295)
Cell Assay Procedure: • 1) Day 0: THP-1 cells are seeded at 50K/well in complete media (1640+10% FBS+50 μM β-ME)+20 ng/mL PMA in 96-well plate • 2) Day 1: PMA containing media is removed after 24 h incubation (37° C./5% CO2), and replaced with complete growth media. Cells are incubated an additional 48 h to recover. • 3) Day 3: Cells are incubated with or without compounds at indicated concentrations for 60 min, prior to addition of 20 ng/mL LPS. Cells are stimulated for 30 min with LPS, washed 1× with ice cold PBS, lysed on ice in Lysis buffer provided in ELISA kit with Roche protease & phosphatase inhibitors. Extracts are clarified by refrigerated centrifugation & stored at −80° C. until pHsp27/total Hsp27 ELISAs • 4) Day 3 or Day 4: Cell Signaling Technology ELISA is run for pSer78-Hsp27 on lysates diluted to approximately 2.5 μg/well. • 5) The absorbance at 450 nm was read in a SpectraMax plus plate reader (Molecular Devices). Data was processed using GraphPad prism 8.0.

T1 sequence (P49137 whole entry): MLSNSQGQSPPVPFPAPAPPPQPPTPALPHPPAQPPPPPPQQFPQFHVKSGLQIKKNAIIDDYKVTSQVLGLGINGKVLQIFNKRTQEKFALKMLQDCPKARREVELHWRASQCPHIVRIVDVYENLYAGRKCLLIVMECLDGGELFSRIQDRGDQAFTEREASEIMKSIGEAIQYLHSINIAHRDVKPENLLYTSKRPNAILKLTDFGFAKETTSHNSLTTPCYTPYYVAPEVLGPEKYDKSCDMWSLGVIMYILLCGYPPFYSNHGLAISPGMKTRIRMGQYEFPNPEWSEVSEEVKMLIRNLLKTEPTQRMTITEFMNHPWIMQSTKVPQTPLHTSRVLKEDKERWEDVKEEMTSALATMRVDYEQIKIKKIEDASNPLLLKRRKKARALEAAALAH

Row | Structure (SMILES) | IC50 [1] | IC50 (THP-1 cells)
1 | CC(C)(N)[C@@H]1CN(c2ccc3c(c2)Cn2cc(-c4ccc(C#N)cc4)cc2-c2nccn2-3)C(=O)O1 (single isomer, unassigned) [Example 21] | < 50 nM | < 50 nM
2 | CN(C)C[C@H]1CCN(c2ccc3c(c2)Cn2cc(-c4ccc(C#N)cc4)cc2-c2nccn2-3)C1=O (single isomer, unassigned) [Example 35] | < 50 nM | < 50 nM
3 | CN(C)C[C@@H]1CCN(c2ccc3c(c2)Cn2cc(-c4ccc(C#N)cc4)cc2-c2nccn2-3)C1=O (single isomer, unassigned) [Example 36] | < 50 nM | < 50 nM
4 | CN(C)CC[C@H]1CCN(c2ccc3c(c2)Cn2cc(-c4ccc(C#N)cc4)cc2-c2nccn2-3)C1=O (single isomer, unassigned) [Example 41] | < 50 nM | < 50 nM
5 | CN(C)CC[C@@H]1CCN(c2ccc3c(c2)Cn2cc(-c4ccc(C#N)cc4)cc2-c2nccn2-3)C1=O (single isomer, unassigned) [Example 42] | < 50 nM | < 50 nM
6 | CN(C)CC1CC(=O)N(c2cc3c(cc2F)-n2ccnc2-c2cc(-c4ccc(C#N)cc4)cn2C3)C1 (stereo in doubt) [Example 91] | 50 to 100 nM | 300 to 400 nM
7 | CC(C)(C)NC[C@@H]1CN(c2ccc3c(c2)Cn2cc(-c4ccc(C#N)cc4)cc2-c2nccn2-3)C(=O)O1 [Example 4] | < 50 nM | < 50 nM
8 | CC1(C)CCN1C[C@@H]1CN(c2ccc3c(c2)Cn2cc(-c4ccc(C#N)cc4)cc2-c2nccn2-3)C(=O)O1 [Example 6, (R)-4-(7-(5-((2,2-Dimethylazetidin-1-yl)methyl)-2-oxooxazolidin-3-yl)-9H-benzo[e]imidazo[2,1-c]pyrrolo[1,2-a][1,4]diazepin-12-yl)benzonitrile] | < 50 nM | < 50 nM
9 | [2H]C([2H])([2H])N(C[C@@H]1CCN1C(=O)c1ccc2c(c1)Cn1cc(-c3ccc(C#N)cc3)cc1-c1nccn1-2)C([2H])([2H])[2H] [Example 120, (S)-4-(7-(2-((Bis(methyl-d3)amino)methyl)azetidine-1-carbonyl)-9H-benzo[e]imidazo[2,1-c]pyrrolo[1,2-a][1,4]diazepin-12-yl)benzonitrile] |  | < 50 nM
10 | CN(C)[C@H]1C[C@@H](NC(=O)c2ccc3c(c2)Cn2cc(-c4ccc(C#N)cc4)cc2-c2nccn2-3)C1 [Example 127] | 100 to 200 nM | 
11 | CN1CC(C)(NC(=O)c2ccc3c(c2)Cn2cc(-c4ccc(C#N)cc4)cc2-c2nccn2-3)C1 [Example 129] | 100 to 200 nM | 
12 | CN(C)CC(C)(C)NC(=O)c1ccc2c(c1)Cn1cc(-c3ccc(C#N)cc3)cc1-c1nccn1-2 [Example 130] | 100 to 200 nM | 
13 | CN1CCC2(CC1)CN(C(=O)c1ccc3c(c1)Cn1cc(-c4ccc(C#N)cc4)cc1-c1nccn1-3)C2 [Example 131] | 50 to 100 nM | 
14 | CN1CC(N(C)C(=O)c2ccc3c(c2)Cn2cc(-c4ccc(C#N)cc4)cc2-c2nccn2-3)C1 [Example 132, 12-(4-Cyanophenyl)-N-methyl-N-(1-methylazetidin-3-yl)-9H-benzo[e]imidazo [2,1c]pyrrolo[1,2-a][1,4]diazepine-7-carboxamide] | 50 to 100 nM | 
15 | CN[C@H]1CC[C@H](N(C)C(=O)c2ccc3c(c2)Cn2cc(-c4ccc(C#N)cc4)cc2-c2nccn2-3)C1 [Example 133] | 200 to 300 nM | 
16 | CN1CC[C@@H](N(C)C(=O)c2ccc3c(c2)Cn2cc(-c4ccc(C#N)cc4)cc2-c2nccn2-3)C1 [Example 134] | 200 to 300 nM | 
17 | CN(CC1CNC1)C(=O)c1ccc2c(c1)Cn1cc(-c3ccc(C#N)cc3)cc1-c1nccn1-2 [Example 135] | 100 to 200 nM | 
18 | CN(CC(CN)CO)C(=O)c1ccc2c(c1)Cn1cc(-c3ccc(C#N)cc3)cc1-c1nccn1-2 (stereo not shown) [Example 136] | 50 to 100 nM | 
19 | CNC[C@@H]1CCN1C(=O)c1ccc2c(c1)Cn1cc(-c3ccc(C#N)cc3)cc1-c1nccn1-2 [Example 137, (S)-4-(7-(2-((Methylamino)methyl)azetidine-1-carbonyl)-9H-benzo[e]imidazo [2,1-c]pyrrolo[1,2-a][1,4]diazepin-12-yl)benzonitrile] |  | 200 to 300 nM

Results, then the molecule that gave them:

Row | IC50 [1] | IC50 (THP-1 cells) | Structure (SMILES)
20 | 50 to 100 nM | 200 to 300 nM | N#Cc1ccc(-c2cc3n(c2)Cc2cc(N4C[C@H]5CNC[C@H]5C4=O)ccc2-n2ccnc2-3)cc1 (relative stereo) [Example 30, cis-4-(7-(1-oxohexahydropyrrolo[3,4-c]pyrrol-2(1H)-yl)-9H-benzo[e]imidazo [2,1-c]pyrrolo[1,2-a][1,4]diazepin-12-yl)benzonitrile]
21 | < 50 nM | < 50 nM | CN(C)C[C@@H]1CN(c2ccc3c(c2)Cn2cc(-c4ccc(C#N)cc4)cc2-c2nccn2-3)C(=O)O1 [Example 1, (R)-4-(7-(5-((Dimethylamino)methyl)-2-oxooxazolidin-3-yl)-9H-benzo [e]imidazo[2,1-c]pyrrolo[1,2-a][1,4]diazepin-12-yl)benzonitrile]
22 | < 50 nM | < 50 nM | CNC[C@@H]1CN(c2ccc3c(c2)Cn2cc(-c4ccc(C#N)cc4)cc2-c2nccn2-3)C(=O)O1 [Example 3]
23 | < 50 nM | < 50 nM | N#Cc1ccc(-c2cc3n(c2)Cc2cc(N4C[C@@H](CN5CCC5)OC4=O)ccc2-n2ccnc2-3)cc1 [Example 5]
24 | < 50 nM | < 50 nM | CN(C)C[C@H]1CC(=O)N(c2ccc3c(c2)Cn2cc(-c4ccc(C#N)cc4)cc2-c2nccn2-3)C1 [Example 7, (R)-4-(7-(4-((Dimethylamino)methyl)-2-oxopyrrolidin-1-yl)-9H-benzo[e]imidazo[2,1-c]pyrrolo[1,2-a][1,4]diazepin-12-yl)benzonitrile]
25 | < 50 nM | 300 to 400 nM | N#Cc1ccc(-c2cc3n(c2)Cc2cc(N4C[C@@H](CN)CC4=O)ccc2-n2ccnc2-3)cc1 [Example 8]
26 | < 50 nM | 50 to 100 nM | CNC[C@H]1CC(=O)N(c2ccc3c(c2)Cn2cc(-c4ccc(C#N)cc4)cc2-c2nccn2-3)C1 [Example 9]
27 | < 50 nM | 100 to 200 nM | CCNC[C@H]1CC(=O)N(c2ccc3c(c2)Cn2cc(-c4ccc(C#N)cc4)cc2-c2nccn2-3)C1 [Example 10]
28 | 50 to 100 nM | 100 to 200 nM | CN(CCO)C[C@H]1CC(=O)N(c2ccc3c(c2)Cn2cc(-c4ccc(C#N)cc4)cc2-c2nccn2-3)C1 [Example 11]
29 | < 50 nM | 100 to 200 nM | CC(C)NC[C@H]1CC(=O)N(c2ccc3c(c2)Cn2cc(-c4ccc(C#N)cc4)cc2-c2nccn2-3)C1 [Example 12]
30 | < 50 nM | 100 to 200 nM | CC(C)(C)NC[C@H]1CC(=O)N(c2ccc3c(c2)Cn2cc(-c4ccc(C#N)cc4)cc2-c2nccn2-3)C1 [Example 13]
31 | 50 to 100 nM | 100 to 200 nM | N#Cc1ccc(-c2cc3n(c2)Cc2cc(N4C[C@@H](CNC5COC5)CC4=O)ccc2-n2ccnc2-3)cc1 [Example 14]
32 | < 50 nM | < 50 nM | N#Cc1ccc(-c2cc3n(c2)Cc2cc(N4C[C@@H](CNC5CC5)CC4=O)ccc2-n2ccnc2-3)cc1 [Example 15]
33 | 50 to 100 nM | 400 to 500 nM | N#Cc1ccc(-c2cc3n(c2)Cc2cc(N4C[C@@H](CNC5(CO)CC5)CC4=O)ccc2-n2ccnc2-3)cc1 [Example 16]
34 | 50 to 100 nM | 200 to 300 nM | CN(C)C[C@@H]1CC(=O)N(c2ccc3c(c2)Cn2cc(-c4ccc(C#N)cc4)cc2-c2nccn2-3)C1 [Example 17, (S)-4-(7-(4-((Dimethylamino)methyl)-2-oxopyrrolidin-1-yl)-9H-benzo[e]imidazo[2,1-c]pyrrolo[1,2-a][1,4]diazepin-12-yl)benzonitrile]
35 | < 50 nM | 50 to 100 nM | CC1(C)CCN1C[C@H]1CC(=O)N(c2ccc3c(c2)Cn2cc(-c4ccc(C#N)cc4)cc2-c2nccn2-3)C1 [Example 19]
36 | < 50 nM | 1000 to 1500 nM | N#Cc1ccc(-c2cc3n(c2)Cc2cc(N4CC5(CNC5)CC4=O)ccc2-n2ccnc2-3)cc1 [Example 22, 4-(7-(7-Oxo-2,6-diazaspiro[3.4]octan-6-yl)-9H-benzo[e]imidazo[2,1-c]pyrrolo [1,2-a][1,4]diazepin-12-yl)benzonitrile]
